Legend:
[1] = molecular target: T1, human muscarinic M1 receptor (Homo sapiens, UniProt P11229); assay: Alphascreen Surefire phospho-ERK1/2 functional assay, M1; type: cell-based; details: for EC50 / % Emax cf. ACh, M1: CHO cells stably expressing human M1; for EC50: phospho-ERK1/2, * = variable results, read-out: pEC50 M1 (converted); for Emax: CHO, read-out: % Emax cf. ACh, M1, CHO cells stably expressing human M1; for Emax / % Emax cf. ACh, M1: relative to ACh
T1 sequence (P11229 1-460): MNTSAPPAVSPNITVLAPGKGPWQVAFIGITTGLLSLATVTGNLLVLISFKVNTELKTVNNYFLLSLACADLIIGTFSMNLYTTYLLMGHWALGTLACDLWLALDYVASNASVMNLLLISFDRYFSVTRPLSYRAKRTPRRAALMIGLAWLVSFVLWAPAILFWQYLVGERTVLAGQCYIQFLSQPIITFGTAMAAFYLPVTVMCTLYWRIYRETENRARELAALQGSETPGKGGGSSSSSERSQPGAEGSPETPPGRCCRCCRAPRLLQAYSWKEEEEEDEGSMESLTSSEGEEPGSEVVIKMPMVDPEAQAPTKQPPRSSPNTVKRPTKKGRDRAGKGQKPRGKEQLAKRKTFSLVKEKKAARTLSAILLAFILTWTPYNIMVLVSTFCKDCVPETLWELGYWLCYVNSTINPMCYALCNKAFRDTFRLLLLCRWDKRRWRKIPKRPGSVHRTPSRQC

[2] = molecular target: T2, human muscarinic M4 receptor (Homo sapiens, UniProt P08173); assay: Alphascreen Surefire phospho-ERK1/2 functional assay, M4; type: cell-based; details: for EC50: phospho-ERK1/2, * = variable results, read-out: pEC50 M4 (converted); for Emax: CHO, read-out: % Emax cf. ACh, M4, CHO cells stably expressing human M4
T2 construct: expressed in transfected cells
T2 sequence (P08173 1-479): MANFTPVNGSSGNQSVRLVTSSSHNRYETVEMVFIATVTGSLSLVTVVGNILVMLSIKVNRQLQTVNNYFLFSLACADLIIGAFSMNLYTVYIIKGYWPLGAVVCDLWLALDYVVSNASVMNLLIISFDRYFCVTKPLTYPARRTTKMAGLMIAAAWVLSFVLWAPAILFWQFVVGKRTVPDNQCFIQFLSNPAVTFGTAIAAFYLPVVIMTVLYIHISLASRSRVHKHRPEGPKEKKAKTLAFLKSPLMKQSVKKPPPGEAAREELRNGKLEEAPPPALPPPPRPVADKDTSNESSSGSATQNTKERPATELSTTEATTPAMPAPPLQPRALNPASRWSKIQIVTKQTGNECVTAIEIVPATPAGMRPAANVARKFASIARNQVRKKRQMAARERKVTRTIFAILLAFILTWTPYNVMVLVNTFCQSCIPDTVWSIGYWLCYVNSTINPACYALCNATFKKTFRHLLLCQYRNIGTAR

[3] = CHO cells stably expressing human M4

| EC50 [1] [nM] | Emax [1] [%] | EC50 [2, 3] [nM] | Emax ([2]; relative to ACh) [%] | % Emax cf. ACh, M1 [1] [%] | % Emax cf. ACh, M4 ([2]; CHO cells stably expressing human M4, relative to ACh) [%] | Compound |
| --- | --- | --- | --- | --- | --- | --- |
| > 20000 | 19 | 200 | 50 |  |  | COC(=O)N1CCC2(CC(N3CCC(C4CCCN4C(=O)OC)CC3)C2)C1 (single isomer, unassigned) [2-10 Isomer 2, methyl 2-{4-[1-(methoxycarbonyl)pyrrolidin-2-yl]piperidin-1-yl}-6-azaspiro[3.4]octane-6-carboxylate] |
| > 20000 | 7 | 316 | 31 |  |  | CCOC(=O)N1CCC2(CC(N3CCC(C4CCCN4C)CC3)C2)C1 (single isomer, unassigned) [2-22 Isomer 2, ethyl 2-[4-(1-methylpyrrolidin-2-yl)piperidin-1-yl]-6-azaspiro[3.4]octane-6-carboxylate] |
| 2510 | 36 | 100 | 91 |  |  | COC(=O)N1CCC2(CC(N3CCC([C@@H]4CCCN4C(=O)N4CC(F)(F)C4)CC3)C2)C1 (single isomer, unassigned) [2-41 Isomer 2] |
| 6310 | 45 | 1000 | 63 |  |  | CCOC(=O)N1CCC2(CC(N3CCC([C@@H]4CCCN4C(=O)OCCF)CC3)C2)C1 (single isomer, unassigned) [2-47 Isomer 2] |
| > 20000 |  | 158 | 67 | 15 |  | CCOC(=O)N1CCC2(CC(N3CCC([C@@H]4CCCN4C(=O)N(C)CC(F)(F)F)CC3)C2)C1 (single isomer, unassigned) [2-55 Isomer 1] |
| > 20000 | 10 | 501 | 40 |  |  | CCOC(=O)N1CCC2(CC(N3CCC([C@@H]4CCCN4CC)CC3)C2)C1 (single isomer, unassigned) [2-61 Isomer 2] |
| 3980 |  | 158 |  | 37 | 52 | CCOC(=O)N1CCC2(CC(N3CCC([C@@H]4CCCN4CCC(F)(F)F)CC3)C2)C1 (single isomer, unassigned) [2-70 Isomer 1] |
| 5010 | 39 | 126 | 56 |  |  | CCOC(=O)N1CCC2(CC(N3CCC([C@@H]4CCCN4CCOC)CC3)C2)C1 (single isomer, unassigned) [2-71 Isomer 2] |
| > 20000 | 14 | 316 | 43 |  |  | CCOC(=O)N1CCC2(CC(N3CCC([C@@H]4CCCN4CC(=O)N(C)C)CC3)C2)C1 (single isomer, unassigned) [2-73 Isomer 2] |
| > 20000 | 12 | 63.1 | 33 |  |  | CCOC(=O)N1CCC2(CC(N3CCC([C@@H]4CCCN4c4ncccn4)CC3)C2)C1 (single isomer, unassigned) [2-81 Isomer 2] |
| 3980 | 55 | 10 | 100 |  |  | CCOC(=O)N1CCC2(CC(N3CCC([C@@H]4CCCN4c4nncs4)CC3)C2)C1 (single isomer, unassigned) [2-83 Isomer 2] |
| 2510 | 66 | > 20000 | 3 |  |  | CCOC(=O)N1CCC2(CC(N3CCC(N4CCC[C@H]4C(=O)NC)CC3)C2)C1 (single isomer, unassigned) [2-85 Isomer 2] |
| > 20000 | 7 | > 20000 | 3 |  |  | CCOC(=O)N1CCC2(CC(N3CCC(N4CC(F)(F)C[C@H]4C(=O)NC)CC3)C2)C1 (single isomer, unassigned) [2-93 Isomer 2] |
| > 20000 | 7 | 6760 | 80 |  |  | CCOC(=O)N1CCC2(CC(N3CCC(N4CC(F)(F)C[C@H]4C(=O)N(C)C)CC3)C2)C1 (single isomer, unassigned) [2-94 Isomer 2] |
| > 20000 | 10 | 126 | 45 |  |  | CCOC(=O)N1CCC2(CC(N3CCC(N4CC[C@@H](F)C4)CC3)C2)C1 (single isomer, unassigned) [2-98 Isomer 2] |
| > 20000 | 18 | 158 | 54 |  |  | CCOC(=O)N1CCC2(CC(N3CCC(N4CC[C@H](F)C4)CC3)C2)C1 (single isomer, unassigned) [2-99 Isomer 2] |
| 10000 | 70 | 631 | 98 |  |  | CCOC(=O)N1CCC2(CC(N3CCC(N4CCC[C@H]4C(F)(F)F)CC3)C2)C1 (single isomer, unassigned) [2-101 Isomer 2] |
| > 20000 | 26 | 200 | 38 |  |  | CCOC(=O)N1CCC2(CC(N3CCC(N4CC5CC5C4)CC3)C2)C1 (single isomer, unassigned) [2-105 Isomer 2, ethyl 2-[4-(3-azabicyclo[3.1.0]hex-3-yl)piperidin-1-yl]-6-azaspiro[3.4]octane-6-carboxylate] |
| > 20000 | 7 | 251 | 63 |  |  | CCOC(=O)N1CCC2(CC(N3CCC(N4C(=O)CCC4=O)CC3)C2)C1 (single isomer, unassigned) [2-112 Isomer 2, ethyl 2-[4-(2,5-dioxopyrrolidin-1-yl)piperidin-1-yl]-6-azaspiro[3.4]octane-6-carboxylate] |
| 126 | 100 | 15.8 | 113 |  |  | CCOC(=O)N1CCC2(CC(N3CCC(N4C(=O)CC[C@H]4C)CC3)C2)C1 (single isomer, unassigned) [2-113 Isomer 2] |
| 126 | 103 | 7.94 | 114 |  |  | CCOC(=O)N1CCC2(CC(N3CCC(N4C(=O)CC[C@H]4CC)CC3)C2)C1 (single isomer, unassigned) [2-114 Isomer 2] |
| 200 | 68 | 25.1 | 78 |  |  | CCOC(=O)N1CCC2(CC(N3CCC(N4C(=O)CC[C@@H]4C)CC3)C2)C1 (single isomer, unassigned) [2-115 Isomer 2] |
| 63.1 | 109 | 6.31 | 103 |  |  | CCOC(=O)N1CCC2(CC(N3CCC(N4C(=O)CC[C@@H]4CC)CC3)C2)C1 (single isomer, unassigned) [2-116 Isomer 2] |
| > 20000 | 33 | 126 | 84 |  |  | CCOC(=O)N1CCC2(CC(N3CCC(N4C(=O)OC[C@H]4C)CC3)C2)C1 (single isomer, unassigned) [2-118 Isomer 2] |
| 2510 | 85 | 126 | 84 |  |  | CCOC(=O)N1CCC2(CC(N3CCC(N4C(=O)OC[C@H]4CC)CC3)C2)C1 (single isomer, unassigned) [2-119 Isomer 2] |
| 398 | 96 | 316 | 87 |  |  | CCOC(=O)N1CCC2(CC(N3CCC(N4C(=O)OC[C@H]4C(C)C)CC3)C2)C1 (single isomer, unassigned) [2-120 Isomer 2] |
| 1000 | 31 | 200 | 60 |  |  | CCOC(=O)N1CCC2(CC(N3CCC(N4C(=O)OC[C@@H]4C)CC3)C2)C1 (single isomer, unassigned) [2-121 Isomer 2] |
| 1000 | 59 | 158 | 60 |  |  | CCOC(=O)N1CCC2(CC(N3CCC(N4C(=O)OC[C@@H]4CC)CC3)C2)C1 (single isomer, unassigned) [2-122 Isomer 2] |
| 3980 | 32 | 316 | 81 |  |  | CCOC(=O)N1CCC2(CC(N3CCC(N4CCN(C)C4=O)CC3)C2)C1 (single isomer, unassigned) [2-125 Isomer 2, ethyl 2-[4-(3-methyl-2-oxoimidazolidin-1-yl)piperidin-1-yl]-6-azaspiro[3.4]octane-6-carboxylate] |
| > 20000 | 15 | 79.4 | 60 |  |  | CCOC(=O)N1CCC2(CC(N3CCC(N4CCCC4c4ccn[nH]4)CC3)C2)C1 (single isomer, unassigned) [2-126 Isomer 2, ethyl 2-{4-[2-(1H-pyrazol-5-yl)pyrrolidin-1-yl]piperidin-1-yl}-6-azaspiro[3.4]octane-6-carboxylate] |

Reference: patent US9926297B2, “Bicyclic AZA compounds as muscarinic M1 receptor and/or M4 receptor agonists” (Heptares Therapeutics Limited, priority 2014, dated 2018)
